Laboratory results published in publication PMC9691367, “The PROTAC selectively degrading Bcl-xL represents a novel Hedgehog pathway inhibitor with capacity of combating resistance to Smoothened inhibitors while sparing bone growth” (Theranostics, 2022).

Key:
[1] = test system: NF-κB signaling pathway; assay: NF-κB luciferase reporter assay in 293T cells; format: cell-based; settings: TNF-α 10 ng/mL, 6 h, SIAIS361034 10 μM, BAY 11-7082 20 μM
Procedure: Cells seeded in 96-well plates were treated with various treatments as indicated. The luciferase activity in the cell lysates was measured using Dual-Luciferase Reporter Assay System (Promega, Madison, WI, USA) according to the manufacturer's instructions in a luminometer (Molecular Devices, Sunnyvale, CA). The firefly luciferase values were normalized to Renilla values. […]
Data represent mean ± SD (n = 3). (B) NF-κB luciferase analysis of the effect of SIAIS361034 on NF-κB signaling pathway in 293T cells.The 293T cells were transfected with NF-κB luciferase reporter and Renilla-TK plasmids and […]
μM) for 6 h. Data represent mean ± SD (n = 3). […]
Data represent mean ± SD (n = 3).
(1 picture or pasted object on this page, not shown here)

[2] = test system: Hh pathway (Gli-luciferase) in light II cells; assay: Dual luciferase reporter assay, Gli-luciferase provoked by SAG in light II cells; format: cell-based; settings: SAG 100 nM, 36 h, read-out: IC50 value inhibiting the Gli-luciferase activity provoked by SAG
Procedure: Cells seeded in 96-well plates were treated with various treatments as indicated. The luciferase activity in the cell lysates was measured using Dual-Luciferase Reporter Assay System (Promega, Madison, WI, USA) according to the manufacturer's instructions in a luminometer (Molecular Devices, Sunnyvale, CA). The firefly luciferase values were normalized to Renilla values.

[3] = test system: platelets; assay: Platelet toxicity assay in C57BL/6J mice; format: in vivo, mouse; settings: 8 h and 24 h
From the text: Blood was collected at different time points via retro-orbital bleeding in anticoagulation tube. Platelets or different blood cells were enumerated using BM800 blood analyzer (Bowlinman Sunshine).

[4] = biological target: Mcl-1 (Homo sapiens, UniProt Q07820); assay: Competitive fluorescence polarization assay, Mcl-1 / FAM-Bim; format: binding; settings: Mcl-1 100 nM, FAM-Bim 5 nM
Procedure: (§1) Competitive fluorescence polarization assays were carried out in black-walled plates in assay buffer (20 mM Na2HPO4 ·12H2O, 20 mM NaH2PO4·12H2O, 1 mM EDTA, 50 mM NaCl, 0.05% PF-68). The use of protein/peptide probe pairs was as follows: Bcl-xL (5 nM) and FAM-Bad (5 nM), Bcl-2 (100 nM) and FAM-Bax (5 nM), Mcl-1 (100 nM) and FAM-Bim (5 nM). Assay buffer, proteins, drugs, and peptides were added to the assay plates sequentially. The assay plates were slightly shaken for 3 min and incubated for 30 min at room temperature. The fluorescence polarization was measured on a Synergy 2 reader (BioTek).

[5] = biological target: Bcl-2 (Homo sapiens, UniProt P10415); assay: Competitive fluorescence polarization assay, Bcl-2 / FAM-Bax; format: binding; settings: Bcl-2 100 nM, FAM-Bax 5 nM
Procedure: as §1

[6] = test system: IKZF1, IKZF3, SALL4, GSPT1; assay: Western blot of CRBN neo-substrates in NIH-3T3 cells; format: cell-based; settings: 24 h
Procedure: Cells were lysed in cell lysis buffer (50 mM Tris pH 8.0, 150 mM NaCl, 10% glycerol, 1 mM EDTA, 50 mM NaF, and 0.1% NP-40) supplemented with protease and phosphatase inhibitors. Total protein extracts of tissues were generated in radioimmunoprecipitation (RIPA) assay lysis buffer containing complete protease and phosphatase inhibitor cocktail. Protein content was quantified using the Pierce BCA Protein Assay Kit (#23225, Thermo Fisher Scientific). The proteins were separated by SDS-PAGE, electrophoretically transferred to polyvinylidene difluoride (PVDF) blotting membranes (#LC2002, Thermo Fisher Scientific), and subjected to routine immunoblot analysis with primary antibodies as follows: anti-Bcl-2 (#15071), anti-Mcl-1 (#94296), anti-VHL (#68547), anti-CRBN (#71810), and anti-Sufu (#2522) were obtained from Cell Signaling Technology (Danvers, Massachusetts, USA); anti-Bcl-xL (#ab32370), anti-Gli1 (#ab134906), and anti-Smoothened (#ab236465) were obtained from Abcam (Cambridge, CB2 0AX, UK); anti-GAPDH (#60004-1-Ig) and anti-β-tubulin (#10094-1-AP) were purchased from Proteintech Group, Inc. (Rosemont, IL 60018, USA). The results were quantified by densitometry using ImageJ software (NIH). […]
hydrochloride; DMAP = 4-dimethylaminopyridine; TFA = trifluoroacetic acid; DMF = N,N-dimethylformamide. […]

[7] = test system: Gli1; assay: Western blot of Gli1 in light II cells; format: cell-based; settings: 1 µM
Procedure: Cells were lysed in cell lysis buffer (50 mM Tris pH 8.0, 150 mM NaCl, 10% glycerol, 1 mM EDTA, 50 mM NaF, and 0.1% NP-40) supplemented with protease and phosphatase inhibitors. Total protein extracts of tissues were generated in radioimmunoprecipitation (RIPA) assay lysis buffer containing complete protease and phosphatase inhibitor cocktail. Protein content was quantified using the Pierce BCA Protein Assay Kit (#23225, Thermo Fisher Scientific). The proteins were separated by SDS-PAGE, electrophoretically transferred to polyvinylidene difluoride (PVDF) blotting membranes (#LC2002, Thermo Fisher Scientific), and subjected to routine immunoblot analysis with primary antibodies as follows: anti-Bcl-2 (#15071), anti-Mcl-1 (#94296), anti-VHL (#68547), anti-CRBN (#71810), and anti-Sufu (#2522) were obtained from Cell Signaling Technology (Danvers, Massachusetts, USA); anti-Bcl-xL (#ab32370), anti-Gli1 (#ab134906), and anti-Smoothened (#ab236465) were obtained from Abcam (Cambridge, CB2 0AX, UK); anti-GAPDH (#60004-1-Ig) and anti-β-tubulin (#10094-1-AP) were purchased from Proteintech Group, Inc. (Rosemont, IL 60018, USA). The results were quantified by densitometry using ImageJ software (NIH).

[8] = test system: Sufu/Gli1 interaction; assay: Co-immunoprecipitation of Sufu with Gli1 in NIH-3T3 cells; format: cell-based; settings: 1 µM
Procedure: Cells were lysed in immunoprecipitation lysis buffer (#87787, Thermo Fisher Scientific) supplemented with protease and phosphatase inhibitor cocktail. Cell lysates were incubated with the indicated antibodies at 4 °C overnight, followed by incubation with Protein A/G Plus-Agarose beads (Santa Cruz Biotechnology) at 4 °C for 4 h. Immunoprecipitates were collected by centrifugation and washed three times with washing buffer. The complex was separated from the beads and then boiled for 10 min. The immunoprecipitates and inputs were analyzed by SDS-PAGE and immunoblot using the antibodies as indicated.

Chain of Mcl-1 (Q07820 whole entry, species assumed): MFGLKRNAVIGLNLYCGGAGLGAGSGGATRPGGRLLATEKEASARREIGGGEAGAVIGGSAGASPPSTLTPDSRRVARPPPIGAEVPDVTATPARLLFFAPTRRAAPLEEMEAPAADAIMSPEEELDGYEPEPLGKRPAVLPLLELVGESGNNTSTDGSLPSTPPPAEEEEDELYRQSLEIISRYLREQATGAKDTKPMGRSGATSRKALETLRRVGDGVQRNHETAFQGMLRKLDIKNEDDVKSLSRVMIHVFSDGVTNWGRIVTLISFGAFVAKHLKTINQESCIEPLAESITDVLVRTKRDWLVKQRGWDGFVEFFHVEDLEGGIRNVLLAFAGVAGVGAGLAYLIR
Chain of Bcl-2 (P10415 whole entry, species assumed): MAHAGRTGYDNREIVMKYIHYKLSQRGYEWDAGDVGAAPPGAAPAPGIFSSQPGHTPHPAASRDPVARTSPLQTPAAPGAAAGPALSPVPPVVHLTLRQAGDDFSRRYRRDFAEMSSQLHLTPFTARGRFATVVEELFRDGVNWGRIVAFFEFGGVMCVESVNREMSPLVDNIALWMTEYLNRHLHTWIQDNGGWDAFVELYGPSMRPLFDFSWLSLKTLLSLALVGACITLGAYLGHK

`CC1(C)CCC(c2ccc(Cl)cc2)=C(CN2CCN(c3ccc(C(=O)NS(=O)(=O)c4ccc(NCCCN5CCN(CCCC#Cc6cccc7c6CN(C6CCC(=O)NC6=O)C7=O)CC5)c(S(=O)(=O)C(F)(F)F)c4)cc3)CC2)C1` (stereo not drawn) [SIAIS361034] was tested, and the “NF-κB luciferase activity activated by TNF-α” value [1] was “no inhibitory activity”, the IC50 [2] was 120 nM and the number of platelets ([3]; SIAIS361034 single i.p. 50 and 100 mg/kg, ABT-263 single p.o. 100 mg/kg) was “no appreciable alterations”. The “other blood cells (neutrophils, red blood cells)” value ([3]; single i.p. 50 and 100 mg/kg) was “no influence”, the Ki [4] was over 10 µM and the Ki [5] was 15.1 nM. The “abundance of CRBN neo-substrates IKZF1, IKZF3, SALL4, GSPT1” value [6] was “did not affect abundance”, the Gli1 protein level [7] was “decreased Gli1 protein level” and the “interaction of Sufu with Gli1” value [8] was “increased the interaction of Sufu with Gli1”.
